Drawing on ChEMBL document CHEMBL1201862, “PubChem BioAssay data set” (2004), this text covers AC50, EC50 and IC50 for eight compounds.

Assay [1] deals with A-375. Kind of assay: A375 melanoma cell viability reduction, dose response, counter-screen for MITF modulator project, cherry-pick samples, set 2 (AID 540335). The class given is functional, cell-based. As to conditions: Homo sapiens. Background: The purpose of a counterscreen is to sort out artefacts and off-target activity.
Assay [2] has as its system A-375. Briefly: MITF: Counter assay: A375 proliferation Measured in Cell-Based System Using Plate Reader - 2084-03_Inhibitor_Dose_DryPowder_Activity. [Related pubchem assays (depositor defined):AID488944]. The class given is functional. As to conditions: Homo sapiens.
The nature of assay [3]: Luminescence Cell-Based Dose Response HTS to Identify Inhibitors of 5'UTR Stem-Loop Driven Prion Protein mRNA Translation in H4 Neuroglioblastoma Cells. [Related pubchem assays: 1827 (Project Summary), 1813 (Primary HTS)]. The class given is functional.
A short description of assay [4]: inhibitors of SNCA 5'UTR-driven reporter translation, confirmation, H4 neuroglioma cells, luminescence (AID 1988). The class given is functional, cell-based.
A short description of assay [5]: inhibitors of firefly luciferase expression or activity, dose response, H4 neuroglioma cells, luminescence (AID 1990). The class given is functional, cell-based.
Assay [6] concerns Escherichia coli. Briefly: microbe, parasite or virus in culture.
Assay [7] concerns Escherichia coli. Briefly: microbe, parasite or virus in culture. The source holds these as a separate data set.
The subject of assay [8] is Streptococcus. Briefly: Group A Streptococcus viability loss, dose response, counter-screen for streptokinase expression inhibitor project, luminescence, BacTiterGlo (AID 1915).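 Also: potency for reduction of bacterial viability or growth.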 The class given is functional, organism-based.
The subject of assay [9] is INS1. Briefly: beta cell apoptosis inhibitors, cytokine rescue, dose response, luminescence, retest (AID 449756).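 Also: cell death triggered by IL-1 beta plus TNF-alpha plus IFN-gamma mixture; protective hits raise ATP signal compared with cytokine alone wells.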 The class given is functional, cell-based. The following applies: Rattus norvegicus.
For assay [10], the target named is T1, Streptokinase A (Streptococcus pyogenes serotype M1, UniProt P10520).
T1 sequence (P10520 whole entry): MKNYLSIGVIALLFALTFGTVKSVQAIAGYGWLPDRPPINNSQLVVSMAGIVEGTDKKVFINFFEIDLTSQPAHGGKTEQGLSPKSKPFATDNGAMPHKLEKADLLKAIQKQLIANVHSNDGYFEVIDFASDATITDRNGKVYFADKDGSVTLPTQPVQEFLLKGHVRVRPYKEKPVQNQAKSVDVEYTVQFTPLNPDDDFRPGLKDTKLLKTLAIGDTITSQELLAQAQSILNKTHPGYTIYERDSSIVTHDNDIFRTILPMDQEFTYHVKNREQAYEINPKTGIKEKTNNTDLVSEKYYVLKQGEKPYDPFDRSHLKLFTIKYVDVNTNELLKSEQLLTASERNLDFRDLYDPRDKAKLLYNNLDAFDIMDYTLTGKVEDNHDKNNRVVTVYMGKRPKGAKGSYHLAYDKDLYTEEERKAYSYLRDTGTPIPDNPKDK
Briefly: S. pyogenes streptokinase expression inhibitors, potency, dose response, plasminogen activation absorbance, OD405 (AID 1914).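 Also: secreted streptokinase activity via plasminogen activation per viability signal from cell pellet.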 The class given is functional, Streptococcus pyogenes M1 GAS.

Assay [11] relates to HEK293. Kind of assay: inhibitors of LMP1-driven NF-kB reporter, dose response, cell-based, HEK293, luciferase, cherry-pick (AID 588343). The class given is functional. The following applies: Homo sapiens.
A short description of assay [12]: cytotoxicity toward NIH3T3 fibroblasts, dose response, counter-screen, cell-based, ATP luminescence, mouse fibroblasts (AID 2010).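 Also: cells exposed to compound for about 90 hours before reading.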 The class given is functional.
Assay [13] is described as follows: inhibitors of intracellular T. cruzi replication, confirmation, NIH3T3 host cells, beta-gal luminescence (AID 2044).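 Also: intracellular parasites grown in NIH/3T3 mouse fibroblasts as host cells; luminescent beta-galactosidase reporter signal from transgenic T. cruzi replicating inside host cells; inhibitors lower the luminescence signal.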 The class given is functional, cell-based.
Assay [14] deals with Latent membrane protein 1 (Human herpesvirus 4 (strain B95-8), UniProt P03230). Briefly: TES1-eGFP NF-kB reporter inhibition versus Tet-On dsRED, dose response, selectivity assay for LMP1 NF-kB inhibitor project, imaging, HEK293T, dual-color eGFP/dsRED, cherry-picks (AID 588398). The class given is functional, cell-based.
Chain of Latent membrane protein 1 (P03230 whole entry): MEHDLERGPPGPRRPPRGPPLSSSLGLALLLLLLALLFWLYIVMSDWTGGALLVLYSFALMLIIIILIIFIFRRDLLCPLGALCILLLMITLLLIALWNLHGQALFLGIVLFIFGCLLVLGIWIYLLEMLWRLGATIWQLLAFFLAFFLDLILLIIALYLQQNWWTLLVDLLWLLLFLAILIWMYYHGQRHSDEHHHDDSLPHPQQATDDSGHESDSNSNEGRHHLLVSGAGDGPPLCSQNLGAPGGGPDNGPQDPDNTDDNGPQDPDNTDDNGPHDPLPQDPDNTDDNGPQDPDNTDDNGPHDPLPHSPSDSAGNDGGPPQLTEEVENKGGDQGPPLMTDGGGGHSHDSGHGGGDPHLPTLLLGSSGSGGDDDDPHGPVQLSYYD
Assay [15] has as its system Streptococcus sp. 'group A'. Briefly: growth inhibition of control SK(-) GAS strain, dose response, counter-screen for streptokinase expression inhibitor project, luminescence, kanamycin, BacTiterGlo, confirmation (AID 1900). The class given is functional, organism-based.
Assay [16] deals with Candida albicans. Briefly: growth inhibition of resistant C. albicans, dose response, CaCi-8 strain, fluconazole, dry powder, set 4 (AID 488950). The class given is functional, organism-based.
The test system of assay [17] is Candida albicans. Briefly: fluconazole resistance reversal in C. albicans, dose response, CaCi-2 strain, Alamar Blue, dry powder, set 4 (AID 488943). The class given is functional, organism-based. (The colour change of resazurin is a common sign of viable cells or microbes.)
Assay [18] concerns Candida albicans. Kind of assay: reversal of fluconazole resistance in C. albicans, dose response, CaCi-2 strain, Alamar Blue, dry powder, set 3 (AID 488907). The class given is functional, organism-based.
Assay [19] concerns Candida albicans. Kind of assay: growth inhibition of azole-resistant C. albicans, dose response, CaCi-8 strain, Alamar Blue, dry powder, set 3 (AID 488905). The class given is functional, organism-based.
Assay [20] addresses T2, Hexokinase HKDC1 (Homo sapiens, UniProt Q2TB90).
T2 sequence (Q2TB90 whole entry): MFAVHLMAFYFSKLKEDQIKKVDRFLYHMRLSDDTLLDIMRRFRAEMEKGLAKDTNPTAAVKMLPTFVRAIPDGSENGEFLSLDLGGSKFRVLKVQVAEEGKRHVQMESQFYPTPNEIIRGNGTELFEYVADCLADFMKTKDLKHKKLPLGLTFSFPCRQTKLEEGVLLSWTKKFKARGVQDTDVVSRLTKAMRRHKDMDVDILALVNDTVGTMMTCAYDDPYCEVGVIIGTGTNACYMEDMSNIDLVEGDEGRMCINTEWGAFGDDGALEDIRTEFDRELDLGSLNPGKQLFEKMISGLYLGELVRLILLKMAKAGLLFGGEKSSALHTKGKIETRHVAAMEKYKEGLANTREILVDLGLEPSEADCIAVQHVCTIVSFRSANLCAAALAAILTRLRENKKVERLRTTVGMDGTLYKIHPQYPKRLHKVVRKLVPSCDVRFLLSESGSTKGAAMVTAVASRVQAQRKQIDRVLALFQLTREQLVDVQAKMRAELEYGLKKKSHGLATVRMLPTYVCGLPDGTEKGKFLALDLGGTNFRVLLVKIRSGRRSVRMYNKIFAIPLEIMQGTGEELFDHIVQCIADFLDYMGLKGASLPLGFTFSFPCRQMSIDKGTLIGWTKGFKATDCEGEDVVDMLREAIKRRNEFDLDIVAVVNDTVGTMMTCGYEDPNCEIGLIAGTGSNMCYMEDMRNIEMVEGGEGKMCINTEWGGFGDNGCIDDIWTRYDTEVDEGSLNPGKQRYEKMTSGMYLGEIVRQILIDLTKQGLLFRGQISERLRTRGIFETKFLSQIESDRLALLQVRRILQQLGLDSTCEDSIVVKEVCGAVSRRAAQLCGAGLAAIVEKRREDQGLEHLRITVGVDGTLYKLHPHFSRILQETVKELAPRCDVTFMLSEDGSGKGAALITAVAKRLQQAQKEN
Kind of assay: HKDC1 hexokinase inhibitors, SAR follow-up, biochemical, set 2 (AID 588355). The class given is functional.

In assay [21] the target is Hexokinase-1 (Homo sapiens, UniProt P19367). Briefly: HK1 enzyme inhibition by HKDC1 hits, SAR follow-up, selectivity assay for HKDC1 inhibitor project, biochemical, set 2, resazurin fluorescence coupled readout (AID 588356). The class given is functional.
Chain of Hexokinase-1 (P19367 whole entry): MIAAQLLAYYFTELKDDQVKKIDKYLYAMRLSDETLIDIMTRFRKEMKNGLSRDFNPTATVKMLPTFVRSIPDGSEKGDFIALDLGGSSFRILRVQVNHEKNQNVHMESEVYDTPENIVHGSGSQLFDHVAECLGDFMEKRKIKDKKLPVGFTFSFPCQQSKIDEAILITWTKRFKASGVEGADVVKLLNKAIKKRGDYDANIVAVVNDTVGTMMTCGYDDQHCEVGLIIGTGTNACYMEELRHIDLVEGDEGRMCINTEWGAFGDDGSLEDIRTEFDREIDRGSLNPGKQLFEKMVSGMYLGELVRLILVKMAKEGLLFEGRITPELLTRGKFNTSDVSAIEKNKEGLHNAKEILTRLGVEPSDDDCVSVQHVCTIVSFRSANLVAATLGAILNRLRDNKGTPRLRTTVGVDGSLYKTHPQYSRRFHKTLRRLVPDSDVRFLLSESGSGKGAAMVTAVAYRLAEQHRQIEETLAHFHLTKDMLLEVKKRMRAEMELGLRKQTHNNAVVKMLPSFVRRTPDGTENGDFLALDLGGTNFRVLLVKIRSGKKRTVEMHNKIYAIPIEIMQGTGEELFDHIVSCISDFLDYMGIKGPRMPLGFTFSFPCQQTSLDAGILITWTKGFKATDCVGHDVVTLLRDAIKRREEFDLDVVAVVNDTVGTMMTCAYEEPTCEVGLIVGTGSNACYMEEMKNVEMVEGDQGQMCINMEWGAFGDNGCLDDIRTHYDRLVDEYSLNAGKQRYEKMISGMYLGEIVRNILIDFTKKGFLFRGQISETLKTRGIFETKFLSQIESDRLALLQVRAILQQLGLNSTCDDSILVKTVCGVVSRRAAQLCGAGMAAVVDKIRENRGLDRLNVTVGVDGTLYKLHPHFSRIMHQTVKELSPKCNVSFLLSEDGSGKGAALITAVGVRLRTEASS
For assay [22], the target named is Phospholipase D1 (Homo sapiens, UniProt Q13393). Briefly: PLD1 inhibitor potency in cells, dose response (AID 602151).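 Also: cellular PLD1 assay in Calu-1 cells stimulated with PMA.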 The class given is functional.
Chain of Phospholipase D1 (Q13393 whole entry): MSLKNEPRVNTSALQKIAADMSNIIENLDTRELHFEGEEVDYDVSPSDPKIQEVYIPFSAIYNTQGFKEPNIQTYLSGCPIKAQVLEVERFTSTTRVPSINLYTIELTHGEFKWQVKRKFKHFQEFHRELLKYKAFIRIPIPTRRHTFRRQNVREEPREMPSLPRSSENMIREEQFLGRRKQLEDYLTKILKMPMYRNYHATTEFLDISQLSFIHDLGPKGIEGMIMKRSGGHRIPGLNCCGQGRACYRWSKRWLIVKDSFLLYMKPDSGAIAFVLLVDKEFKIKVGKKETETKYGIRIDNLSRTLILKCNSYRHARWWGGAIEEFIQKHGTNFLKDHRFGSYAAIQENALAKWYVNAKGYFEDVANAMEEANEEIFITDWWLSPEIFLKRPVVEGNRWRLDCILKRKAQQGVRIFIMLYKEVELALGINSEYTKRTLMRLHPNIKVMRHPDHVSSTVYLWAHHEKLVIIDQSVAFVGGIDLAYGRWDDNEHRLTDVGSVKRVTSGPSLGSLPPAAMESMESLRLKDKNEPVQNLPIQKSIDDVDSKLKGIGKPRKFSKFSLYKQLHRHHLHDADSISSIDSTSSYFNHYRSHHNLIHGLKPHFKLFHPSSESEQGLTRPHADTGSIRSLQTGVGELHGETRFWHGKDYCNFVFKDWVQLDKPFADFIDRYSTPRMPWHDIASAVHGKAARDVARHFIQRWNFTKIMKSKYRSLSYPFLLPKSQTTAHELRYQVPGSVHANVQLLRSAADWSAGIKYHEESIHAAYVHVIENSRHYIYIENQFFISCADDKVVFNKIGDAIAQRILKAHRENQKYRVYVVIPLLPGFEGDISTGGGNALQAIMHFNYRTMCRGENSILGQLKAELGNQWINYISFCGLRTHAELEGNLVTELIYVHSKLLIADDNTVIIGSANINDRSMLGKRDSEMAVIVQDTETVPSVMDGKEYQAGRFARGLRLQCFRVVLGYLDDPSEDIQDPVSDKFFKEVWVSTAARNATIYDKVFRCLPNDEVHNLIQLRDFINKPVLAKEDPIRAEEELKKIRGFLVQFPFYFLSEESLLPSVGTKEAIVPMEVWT
Assay [23] concerns the target Phospholipase D2 (Homo sapiens, UniProt O14939). Briefly: PLD2 inhibitor potency in cells, dose response (AID 602147).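 Also: cellular assay in HEK293 cells overexpressing GFP-tagged PLD2.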 The class given is functional.
Assay [24] concerns the target Beta-galactosidase (Escherichia coli, UniProt Q8VNN2). Briefly: PubChem AID 485352. The class given is functional.
In assay [25] the target is Mitochondrial peptide methionine sulfoxide reductase (Bos taurus, UniProt P54149). Briefly: Absorbance-based biochemical high throughput dose response assay for activators of Methionine sulfoxide reductase A (MsrA). The class given is functional.
Chain of Mitochondrial peptide methionine sulfoxide reductase (P54149 whole entry): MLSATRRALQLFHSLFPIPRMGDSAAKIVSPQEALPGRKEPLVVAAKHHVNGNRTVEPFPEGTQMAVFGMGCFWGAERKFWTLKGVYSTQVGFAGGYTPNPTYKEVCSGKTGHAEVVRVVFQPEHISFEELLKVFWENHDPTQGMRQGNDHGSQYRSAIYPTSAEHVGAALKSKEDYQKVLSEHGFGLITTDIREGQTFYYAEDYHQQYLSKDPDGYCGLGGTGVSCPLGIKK
Assay [26] has as its target Type-1 angiotensin II receptor (Homo sapiens, UniProt P30556). Briefly: AT1 receptor antagonists, dose response, selectivity assay for APJ receptor antagonist project, cell-based, uHTS hits (AID 463214).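 Also: antagonist potency against angiotensin II stimulated AT1 response.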 The class given is functional.

The source made the active and inactive calls.

Chain of Phospholipase D2 (O14939 whole entry): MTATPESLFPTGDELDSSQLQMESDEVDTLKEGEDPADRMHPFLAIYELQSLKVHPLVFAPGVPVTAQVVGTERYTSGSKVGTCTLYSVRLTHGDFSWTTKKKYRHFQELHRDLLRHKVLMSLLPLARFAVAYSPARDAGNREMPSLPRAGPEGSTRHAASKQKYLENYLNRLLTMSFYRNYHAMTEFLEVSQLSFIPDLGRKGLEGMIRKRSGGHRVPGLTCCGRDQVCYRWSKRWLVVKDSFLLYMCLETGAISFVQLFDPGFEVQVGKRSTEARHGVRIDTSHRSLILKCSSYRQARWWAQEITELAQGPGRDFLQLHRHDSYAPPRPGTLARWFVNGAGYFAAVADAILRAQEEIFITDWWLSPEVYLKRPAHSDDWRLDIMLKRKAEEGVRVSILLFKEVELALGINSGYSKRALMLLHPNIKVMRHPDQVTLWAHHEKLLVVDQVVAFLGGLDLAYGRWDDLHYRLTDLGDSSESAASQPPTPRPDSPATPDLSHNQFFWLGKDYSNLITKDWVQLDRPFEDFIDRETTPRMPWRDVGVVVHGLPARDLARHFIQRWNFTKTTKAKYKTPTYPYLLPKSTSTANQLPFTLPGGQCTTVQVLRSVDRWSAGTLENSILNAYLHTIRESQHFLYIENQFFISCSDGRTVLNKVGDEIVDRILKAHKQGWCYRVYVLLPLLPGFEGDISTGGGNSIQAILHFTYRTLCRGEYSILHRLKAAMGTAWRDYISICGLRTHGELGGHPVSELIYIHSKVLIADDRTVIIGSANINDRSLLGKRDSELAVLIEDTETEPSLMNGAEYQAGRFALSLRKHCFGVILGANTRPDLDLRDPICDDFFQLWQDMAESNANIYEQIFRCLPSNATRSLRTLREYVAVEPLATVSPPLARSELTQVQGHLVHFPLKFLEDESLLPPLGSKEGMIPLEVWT
Chain of Type-1 angiotensin II receptor (P30556 whole entry): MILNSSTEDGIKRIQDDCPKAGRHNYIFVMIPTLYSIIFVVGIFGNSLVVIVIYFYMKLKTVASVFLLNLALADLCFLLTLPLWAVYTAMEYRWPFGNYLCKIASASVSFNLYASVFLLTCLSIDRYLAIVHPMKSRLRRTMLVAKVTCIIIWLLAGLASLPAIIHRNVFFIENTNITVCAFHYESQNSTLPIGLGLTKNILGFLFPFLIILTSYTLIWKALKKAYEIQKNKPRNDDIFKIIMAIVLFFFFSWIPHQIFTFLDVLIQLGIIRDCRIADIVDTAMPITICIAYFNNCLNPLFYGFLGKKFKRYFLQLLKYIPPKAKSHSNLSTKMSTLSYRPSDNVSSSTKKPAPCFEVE
Chain of Beta-galactosidase (Q8VNN2 whole entry): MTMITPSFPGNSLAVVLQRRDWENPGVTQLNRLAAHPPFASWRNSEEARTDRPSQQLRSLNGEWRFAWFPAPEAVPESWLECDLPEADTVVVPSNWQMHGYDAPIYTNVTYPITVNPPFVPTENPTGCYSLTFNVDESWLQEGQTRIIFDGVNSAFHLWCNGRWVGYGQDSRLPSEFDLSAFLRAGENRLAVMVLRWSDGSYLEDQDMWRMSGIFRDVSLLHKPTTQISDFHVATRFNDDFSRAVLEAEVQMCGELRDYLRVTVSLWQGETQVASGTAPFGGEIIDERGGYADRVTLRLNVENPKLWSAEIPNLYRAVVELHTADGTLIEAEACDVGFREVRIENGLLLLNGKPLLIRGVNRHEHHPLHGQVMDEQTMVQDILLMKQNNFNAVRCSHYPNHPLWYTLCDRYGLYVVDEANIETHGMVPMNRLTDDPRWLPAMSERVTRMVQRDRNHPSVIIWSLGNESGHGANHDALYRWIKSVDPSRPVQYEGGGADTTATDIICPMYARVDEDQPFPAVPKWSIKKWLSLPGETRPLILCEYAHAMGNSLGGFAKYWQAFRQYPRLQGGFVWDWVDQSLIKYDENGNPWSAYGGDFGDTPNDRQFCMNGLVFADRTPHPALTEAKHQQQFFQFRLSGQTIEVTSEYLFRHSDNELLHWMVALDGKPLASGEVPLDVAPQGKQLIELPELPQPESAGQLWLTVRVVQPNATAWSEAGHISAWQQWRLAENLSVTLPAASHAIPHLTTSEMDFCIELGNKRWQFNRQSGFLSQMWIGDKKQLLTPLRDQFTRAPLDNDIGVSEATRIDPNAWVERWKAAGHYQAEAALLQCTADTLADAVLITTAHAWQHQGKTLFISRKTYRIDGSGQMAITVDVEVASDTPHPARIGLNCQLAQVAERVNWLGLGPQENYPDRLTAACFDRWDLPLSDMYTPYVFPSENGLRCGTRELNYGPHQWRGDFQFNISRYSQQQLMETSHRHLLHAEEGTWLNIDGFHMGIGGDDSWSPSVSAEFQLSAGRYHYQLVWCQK

Regarding `Cn1c(/C(C#N)=C/c2ccc(-c3ccc(S(N)(=O)=O)cc3)o2)nc2ccccc21`, the concentration at half-maximal activity (AC50) in assay [1] and in [2] was > 11 µM (active) in each case.
For `O=C(O)CCCc1nc(-c2ccc(Cl)cc2)no1`, the EC50 – broadly, the midpoint of the concentration-response curve – is 23.1 µM (active) in [3], 16.2 µM (active) in assay [4] and 27.1 µM (active) in assay [5]. In addition, in assay [6], the half-maximal activity concentration (AC50) (as a rule, the midpoint of the concentration-response curve, whichever way the signal moves) was 39 µM (active).
As for `Cc1nnc(SCc2ccccc2CSc2nnc(C)s2)s1`, in assay [7], the half-maximal activity concentration (AC50) was 111 µM (active).
On to `CCCc1sc(N/N=C/c2ccccn2)nc1-c1ccc(Br)cc1`, for which the EC50 in [8] was 8.45 µM (active); in assay [10], > 150 µM (not active); in [12], 2.38 µM (active); in [13], 0.202 µM (active); in assay [15], 0.442 µM (active). The figures for the AC50 in assay [9], in assay [11] and in assay [14] were 8.41 µM (active), 22.3 µM (active) and 32.3 µM (active), respectively.
Turning to `Cc1ccc(N2CCN(C(=O)c3ccc(Cl)cc3)CC2)nn1`, the AC50 in [16] was 4.41 µM (active); in assay [17], 1.64 µM (active); in assay [18], 8.19 µM (active); in assay [19], 103 µM (active).
Turning to `COc1ccc2c(c1)C(NC(C)=O)C(=O)N2Cc1ccccc1` (stereo unspecified), the IC50 in [20] and in assay [21] was > 80 µM (inactive) throughout.
With `C[C@@H](CN1CCC2(CC1)C(=O)NCN2c1ccc(F)c(F)c1)NC(=O)c1ccc(F)cc1`, the half-inhibitory concentration (IC50) (usually the concentration at which inhibition is half-maximal) is 0.104 µM (active) in assay [22] and 0.26 µM (active) in [23].
Regarding `O=C1c2ccccc2-c2nnc(-c3ccccc3)cc21`, the EC50 in [24] is > 40 µM (inactive); in [25], > 104 µM (inactive). In addition, the IC50 in assay [26] was 7.43 µM (active).
